According to PMC1892040 (PLoS Medicine, 2007):
Where two headings read alike, the source gives them in different places.

Legend:
S. mansoni TGR [1] = target: T1, S. mansoni TGR (Schistosoma mansoni, UniProt Q962Y6); assay: biochemical; format: biochemical; design: The entire TGR ORF plus the SECIS element was subcloned into pET-24a; made in house; host or cells: Escherichia coli BL21(DE3) with pSUABC; conditions: for Type of inhibition of TGR: reciprocal plots, TrxR and GR activities
T1 sequence (Q962Y6 1-598): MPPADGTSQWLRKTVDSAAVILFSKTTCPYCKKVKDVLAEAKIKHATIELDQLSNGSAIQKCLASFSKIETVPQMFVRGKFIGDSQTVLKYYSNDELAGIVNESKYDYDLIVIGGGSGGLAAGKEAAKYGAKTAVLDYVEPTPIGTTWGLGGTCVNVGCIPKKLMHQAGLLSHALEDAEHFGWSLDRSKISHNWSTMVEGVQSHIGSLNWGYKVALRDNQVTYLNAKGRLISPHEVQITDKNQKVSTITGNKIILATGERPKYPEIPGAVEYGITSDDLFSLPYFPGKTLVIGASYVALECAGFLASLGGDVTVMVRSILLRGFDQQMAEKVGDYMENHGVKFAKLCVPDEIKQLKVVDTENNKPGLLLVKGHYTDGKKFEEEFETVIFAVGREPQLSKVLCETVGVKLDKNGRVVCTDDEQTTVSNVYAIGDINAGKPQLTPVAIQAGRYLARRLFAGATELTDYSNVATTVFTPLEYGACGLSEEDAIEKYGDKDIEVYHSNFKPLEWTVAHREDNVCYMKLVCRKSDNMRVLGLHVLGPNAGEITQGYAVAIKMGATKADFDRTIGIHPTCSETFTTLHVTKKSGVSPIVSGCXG
Protocol: The inhibitory constants (K i) were determined using Equation 1 [21]: [drawing 1] where v maxapp is the apparent v max at different inhibitor concentrations and corresponds to the value of the 1/v intercept on the reciprocal plot.
The apparent Vmax for various concentrations of inhibitors were used to calculate K i values. Concentrations of PAT are no drug (♦), 10 nM, 30 nM (▴), and 75 nM (×); and of OPZ are no drug (♦), 50 μM, 75 μM (▴), and 100 μM (×).

[2] = target: phosphofructokinase (PFK); design: method as in PMID 8898332; conditions: cited from earlier work
S. mansoni TGR [3] = target: T1, S. mansoni TGR
Protocol: (§1) Assays were performed at 25 °C in 0.1 M potassium phosphate (pH 7.4), 10 mM EDTA using 100 μM NADPH unless otherwise stated.
(§2) Initial inhibitor screens were conducted in 200 μl volumes in 96 well plates with 50 μM inhibitor, 100 μM NADPH, and 5 nM TGR in 0.1 M potassium phosphate (pH 7.4), 10 mM EDTA with a preincubation step of 15 min. […] All assays were done in triplicate.

myeloma cell line SP2/0 = assay: Cytotoxicity assay (sulforhodamine B); format: cell-based; conditions: adult worms 24 h; myeloma cells 24 h and 5 d
Protocol: Cytotoxicity assays were performed using sulforhodamine B to determine cellular protein content as described. Briefly, myeloma cell line SP2/0 was cultured in 96-well microtiter plates containing 0.2 ml of RPMI-1640 per well at a cell density of 1,000 per well at 37 °C in 5% CO2. Cells were treated with drug concentrations (or drug carrier alone) and exposure times as indicated. After treatment, cells were fixed with 10% TCA at 4 °C for 1 h. Fixed cells were rinsed to remove fixative and then stained in 0.4% (w/v) sulforhodamine B (Sigma) in 1% acetic acid for 30 min. After washing with 1% acetic acid and dye extraction in 10 mM Tris (pH 10.5), plates were read at A564nm. The A564nm of drug-treated cells was compared to carrier-only-treated cells. The treatments were done in triplicate and the experiments repeated three times.

S. mansoni TGR [4] = target: T1, S. mansoni TGR; format: biochemical; design: The entire TGR ORF plus the SECIS element was subcloned into pET-24a; made in house; host or cells: Escherichia coli BL21(DE3) with pSUABC; conditions: read-out: IC50 S. mansoni TGR, GSSG (GR activity)
Protocol: as §1, §2

S. mansoni TGR [5] = target: T1, S. mansoni TGR; format: biochemical; design: The entire TGR ORF plus the SECIS element was subcloned into pET-24a; made in house; host or cells: Escherichia coli BL21(DE3) with pSUABC; conditions: read-out: IC50 S. mansoni TGR, DTNB (TrxR activity)
Protocol: as §1, §2

Human GR [6] = target: T2, Human GR (Homo sapiens, UniProt P00390); assay: Inhibition of human GR (GSSG); format: biochemical; conditions: 12.5 μM compound, 200 μM disulfide substrate, preincubation 60 min at 37 °C; read-out: Percent inhibition of Human GR
T2 sequence (P00390 44-522): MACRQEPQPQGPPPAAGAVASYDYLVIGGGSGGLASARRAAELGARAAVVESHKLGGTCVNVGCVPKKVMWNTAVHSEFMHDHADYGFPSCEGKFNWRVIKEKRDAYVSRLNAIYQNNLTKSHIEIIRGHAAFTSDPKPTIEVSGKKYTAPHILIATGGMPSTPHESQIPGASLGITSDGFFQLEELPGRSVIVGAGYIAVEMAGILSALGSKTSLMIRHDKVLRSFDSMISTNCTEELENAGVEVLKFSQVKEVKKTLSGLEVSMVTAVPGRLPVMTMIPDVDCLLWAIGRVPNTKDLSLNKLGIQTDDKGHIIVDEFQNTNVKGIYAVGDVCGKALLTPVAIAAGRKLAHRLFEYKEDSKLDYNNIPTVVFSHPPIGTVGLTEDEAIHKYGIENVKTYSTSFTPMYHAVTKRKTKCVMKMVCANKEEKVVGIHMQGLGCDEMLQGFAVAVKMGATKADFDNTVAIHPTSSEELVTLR
From the text: (§3) In order to assess the potential for inhibition of TGR we screened several structurally diverse series of compounds (Figure S1) known to act as inhibitors of disulfide reductases from various organisms.

S. mansoni TGR [7] = target: T1, S. mansoni TGR; conditions: rough estimation at low OPZ concentrations
Protocol: OPZ concentrations were 0 (•), 25 (□), 50 (♦), 75 (Δ), and 100 (▴) μM. All incubation mixtures included 2% final DMSO. […] The error bars in (B) and (D) represent ± the standard errors of the k obs values estimated separately at each inhibitor concentration, as obtained from nonlinear regression analysis.

Human TrxR = target: T3, Human TrxR (Homo sapiens, UniProt Q16881); assay: Inhibition of human TrxR (DTNB/Trx); format: biochemical; conditions: 12.5 μM compound, 200 μM disulfide substrate, preincubation 60 min at 37 °C; read-out: Percent inhibition of Human TrxR
T3 sequence (Q16881 1-499 isoform Q16881-5): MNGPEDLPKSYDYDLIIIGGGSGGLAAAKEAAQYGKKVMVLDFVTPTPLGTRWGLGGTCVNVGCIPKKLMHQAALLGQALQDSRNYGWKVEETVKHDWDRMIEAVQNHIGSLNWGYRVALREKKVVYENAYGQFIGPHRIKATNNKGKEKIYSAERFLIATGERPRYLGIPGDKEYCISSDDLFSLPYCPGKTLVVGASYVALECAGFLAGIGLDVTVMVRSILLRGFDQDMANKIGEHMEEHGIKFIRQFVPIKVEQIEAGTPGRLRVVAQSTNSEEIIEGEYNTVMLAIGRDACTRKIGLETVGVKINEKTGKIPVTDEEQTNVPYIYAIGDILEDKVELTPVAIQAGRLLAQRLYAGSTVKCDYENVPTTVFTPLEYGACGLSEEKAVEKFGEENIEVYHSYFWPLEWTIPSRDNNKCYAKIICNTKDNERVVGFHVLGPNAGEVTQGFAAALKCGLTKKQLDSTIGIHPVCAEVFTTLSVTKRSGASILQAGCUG
From the text: as §3

Human TGR = conditions: read-out: Apparent Km, Human TGR; cited from earlier work
S. mansoni TGR [8] = target: T1, S. mansoni TGR; assay: Kinetic analysis of recombinant S. mansoni TGR with substrates
Protocol: Kinetic parameters were determined using Lineweaver–Burk plots using KaleidaGraph 4 (Synergy Software, http://www.synergy.com) least squares best fit of data and varying concentrations of one substrate while maintaining the concentration of other substrates. […] All assays were done in triplicate.

Human GR [9] = target: T2, Human GR; conditions: read-out: Apparent Km, Human GR; cited from earlier work
Human TrxR1 = conditions: read-out: Apparent Km, Human TrxR1; cited from earlier work
[10] = substrate of TGR (20 nM), 25 °C, pH 7.4, 100 μM NADPH, ± SD

SMILES: O.O.O.O=C([O-])[C@H]([O-])[C@@H]([O-])C(=O)[O-].O=C([O-])[C@H]([O-])[C@@H]([O-])C(=O)[O-].[K+].[K+].[Sb+3].[Sb+3] [PAT, potassium antimonyl tartrate]
- Ki (S. mansoni TGR [1]; DTNB as substrate, read-out: Ki (± standard deviation), TrxR activity of TGR): 0.00486 ± 0.00046 µM
- Ki (S. mansoni TGR [1]; GSSG as substrate, read-out: Ki (± standard deviation), GR activity of TGR): 0.00722 ± 0.00496 µM
- Type of inhibition of TGR (S. mansoni TGR [1]): noncompetitive
- IC50 [2]: 16 µM
- Activity of Enzyme (% of Uninhibited Enzyme) (S. mansoni TGR [3]): 0%
- Differential in toxicity between adult worms and mammalian cells (myeloma cell line SP2/0): similarly large differential in toxicity
- IC50 (S. mansoni TGR [4]): 37 nM
- IC50 (S. mansoni TGR [5]): 51 nM

SMILES: Cc1c(-c2cnccn2)ssc1=S [OPZ, oltipraz]
- inhibition at 12.5 µM (Human GR [6]): 0%
- Ki (S. mansoni TGR [1]; Ki (± standard deviation), GR activity of TGR, GSSG as substrate): 33.8 ± 6 µM
- Ki (S. mansoni TGR [1]; Ki (± standard deviation), TrxR activity of TGR, DTNB as substrate): 18.1 ± 1.1 µM
- Type of inhibition of TGR (S. mansoni TGR [1]): noncompetitive
- activity (S. mansoni TGR [3]): 13%
- k i, first-order rate constant for irreversible inactivation, GR assay (S. mansoni TGR [7]): ~0.04 min⁻¹
- k i, first-order rate constant for irreversible inactivation, TrxR assay (S. mansoni TGR [7]): ~0.06 min⁻¹
- inhibition at 12.5 µM (Human TrxR): 37%

SMILES: NC(=O)C1=CN([C@@H]2O[C@H](COP(=O)(O)OP(=O)(O)OC[C@H]3O[C@@H](n4cnc5c(N)ncnc54)[C@H](OP(=O)(O)O)[C@@H]3O)[C@@H](O)[C@H]2O)C=CC1 [NADPH]
- Km (Human TGR): 10.7 µM
- Km (S. mansoni TGR [8]; read-out: Apparent Km, S. mansoni TGR): 13.7 µM
- kcat (S. mansoni TGR [8]; substrate of TGR (20 nM), 25 °C, pH 7.4, 100 μM NADPH): 20.1 s⁻¹
- Km (S. mansoni TGR [8]; [10]): 13.7 ± 2.4 µM
- Vmax (S. mansoni TGR [8]; [10]): 25.1 ± 1.8 µM/min
- Km (Human GR [9]): 8.5 µM
- Km (Human TrxR1): 19.6 µM
